{"source": "patent US20250084380A1", "about": "“ARTIFICIAL BRAIN TISSUE” (priority 2016, published 2025)", "key": {"[1]": {"system": "hiPSC derived 3D neural culture", "assay": "Local field potential recordings of hiPSC-derived 3D neural culture with activity inhibitors", "format": "cell-based, human", "settings": "for spontaneous and inducible activity (LFP): CNQX 50 μM, AP5 250 μM together"}, "[2]": {"system": "primary murine striatal neurons, astrocytes, and microglia", "assay": "3D tri-culture intracerebral hemorrhage model with necrostatin-1 treatment", "format": "cell-based, mouse", "settings": "for total cell number / DNA content (DNA quantification): nec-1 conditions, 24 hour; for ROS / reactive species level vs untreated samples: nec-1 groups, 4 hours post-injury, 250 mol/mL nec-1 for 15 minutes prior to injury", "protocol": "Hemorrhage injuries were performed at the Neuroscience Center at Massachusetts General Hospital. Samples were transported to the Center, incubated for one hour at 37° C., and then injected with 10 μL of mouse blood and incubated for another hour before being returned to the Tufts University Biomedical Engineering Department. Samples were evaluated at 4 and 24 hours post-injury. For necrostatin-1 treatment, samples were incubated with […] necrostatin-1 for 15 minutes prior to performing a hemorrhage injury.\nFor all studies, groups included: untreated controls, sham, sham plus nec-1 treatment, hemorrhage (ICH) or ICH plus nec-1 treatment samples.\nCell viability was assessed with a Live/Dead assay, which uses a mixture of calcein and propidium iodide stains (1.2 μL of calcein (reconstituted in DMSO) and 10 μL of propidium iodide (“PI”) per 1 mL of final stain solution). Samples were washed with PBS 2-3 times and any remaining PBS was aspirated. Sponges were transferred to a 96 well plate, 100 μL of calcein/PI stain solution was added to each sample, and they were incubated at 37° C., covered in aluminum foil for 30 minutes. The stain solution was then aspirated, samples were washed with PBS 2-3 times, and then imaged using a confocal microscop with lasers of wavelengths of […] (to detect calcein staining) and […] (to detect PI staining).\nDNA was quantified using a PicoGreen assay. To prepare samples for DNA quantification, they were first washed once with PBS, followed by addition of 100 μL of 0.05% Triton-X to cover the sponge. Samples were stored at −20° C. until use. For measurements, samples were thawed at room temperature and homogenized with scissors. Supernatant was collected and placed in a tube, on ice. Enough 1×TE Buffer needed for a dilution of 100 μL 1×TE buffer and 200 μL supernatant for each sample was prepared, and 4 mL of 1×TE buffer was prepared for the standards. 20×TE buffer was diluted 1:20 in diH20 to get 1×TE buffer. 1×TE buffer was then mixed with sample supernatants in separate 1.5 mL tubes. 100 μL of each sample was added to a 96-well plate, in triplicate. Standards were prepared by mixing the DNA working solution and the TE buffer to create 400 μL solutions with the following DNA concentrations: 2000 ng/mL, 1000 ng/mL, 500 ng/mL, 200 ng/mL, 100 ng/mL, 50 ng/mL, 20 ng/mL, and 0 ng/mL. Once samples were ready for analysis and the fluorescence plate reader was warmed and ready, PicoGreen stain was added to each sample. PicoGreen stain was prepared by making a 200-fold dilution of the stock PicoGreen stain in 1×TE Buffer for a final volume of 100 μL per sample plus 30%. The PicoGreen solution was protected from light and 100 μL of the diluted PicoGreen solution was added to each sample, then incubated at room temperature for 2-3 minutes. Fluorescence of samples was read using a plate-reader with 485 nm excitation and 538 nm emission. Fluorescence readings were converted into cell counts by using standard calculations to determine DNA content of each sample, which was then divided by 5.5 pg, which is the average mass of DNA in neurons (Moroz and Kohn 2013).\nLDH assays were run on all samples and standards in duplicate, using a commercially available kit. An NADH standard was prepared using the stock NADH standard solution and the LDH assay buffer to achieve 50 μL each of the following concentrations: 0, 2.5, 5, 7.5, 10, and 12.5 nmole per 50 μL. 500 μL of LDH assay buffer was added to each sample for every 100 mg of tissue and samples were then homogenized with scissors, on ice, prior to centrifuging for 15 min at 10,000 xg and 4° C. 50 μL of the supernatant was added into wells in a 96 well plate (in duplicate) and LDH buffer was added to a total volume of 50 μL per well. For each reaction (sample and standards), 2 μL of LDH substrate mix was added to 48 μL of LDH assay buffer to create a Master Reaction Mix. 50 µL of reaction mix was added to each well and contents were mixed by pipetting up and down. […]"}, "microglia [3]": {"system": "microglia", "assay": "Suppression of microglia in 2D primary astrocytic cultures", "format": "cell-based, mice", "from_the_text": "In addition to primary microglia, an immortalized microglial cell line (N9) was also used. It was noted that this line has a fast proliferation rate and appeared to suppress neuronal cultures, so primary cell lines were maintained as a source of microglia. In general, it is thought that microglia inhibit growth of astrocytic populations. Microglia proliferation is strictly regulated by colony-stimulating factor 1 and its receptor on microglia membranes. Without wishing to be held to a particular theory, it was contemplated that if the receptor for CSF1 growth factor was inhibited, the growth of microglia in astrocytic population would be inhibited. Accordingly, a 2 week experiment was performed in two dimensional (2D) culture conditions to see if microglial growth could be inhibited. For this experiment, the glial media that was supplied with 1 uM supplement of CSF1R inhibitors was used. Media was changed every second day in 96 well plates with 10.000 mice primary astrocytic cultures. […] Number of microglia was determined in cells treated with CSF1R inhibitor or control (FIG. 1, panel N) and further evaluated via WST-1 assay (FIG. 1, panel O)."}, "microglia [4]": {"system": "microglia", "assay": "Microglia activation with LPS treatment", "format": "cell-based, rat/mouse", "settings": "100 ng/mL LPS; 3 days", "protocol": "DAPI was used as a nuclear counterstain. Microglia were also assessed for their ability to activate upon or following treatment with lipopolysaccharide (LPS) (FIG. 1, panel G), and further analyzed post-treatment for expression of inducible nitric oxide synthase (iNOS) (FIG. 1, panel H) and interleukin 1-beta (IL1-beta) (FIG. 1, panel I). Microglia activation ability with LPS (lipopolysaccharide) treatment was performed with 100 ng/mL of LPS to activate microglia cells (20,000 cells per well, 96 well plate)."}}, "data": [{"compound": "N#Cc1cc2c(cc1[N+](=O)[O-])=NC(=O)C(=O)N=2", "note": "[CNQX, 6-cyano-7-nitroquinoxaline-2,3-dione]", "values": [{"measurement": "spontaneous and inducible activity (LFP)", "setting": "[1]", "value": "partially blocked"}]}, {"compound": "CN1C(=O)C(Cc2c[nH]c3ccccc23)NC1=S", "note": "(centres unmarked) [necrostatin-1, Necrostatin-1]", "values": [{"measurement": "reactive species (ROS-RNS assay), differences between groups", "setting": "[2]; 24 hours post-injury", "value": "No significant differences"}, {"measurement": "LDH activity vs the two sham groups", "setting": "[2]; ICH+nec-1", "value": "statistically higher levels of LDH activity"}, {"measurement": "LDH activity", "setting": "[2]; ICH+nec-1 vs ICH, 24 hours", "value": "slightly lower level"}, {"measurement": "reactive species (ROS-RNS assay)", "setting": "[2]; Sham+nec-1 compared to sham alone", "value": "significantly lower level of reactive species"}, {"measurement": "total cell number / DNA content (DNA quantification)", "setting": "[2]", "value": "higher DNA content"}, {"measurement": "total cell number / DNA content (DNA quantification)", "setting": "[2]; listed as nec-1", "value": "significantly more cells were counted in nec-1 conditions"}, {"measurement": "ROS / reactive species level vs untreated samples", "setting": "[2]", "value": "statistically significant decrease in the amount of reactive species"}, {"measurement": "ROS / reactive species level vs untreated samples", "setting": "[2]; listed as nec-1", "value": "significantly lower ROS levels"}, {"measurement": "cell count and viability", "setting": "[2]; sham+nec-1, 24 hours", "value": "highest cell count and viability after 24 hours"}]}, {"compound": "O=P(O)(O)C(Cl)(Cl)P(=O)(O)O", "note": "[clodronic acid]", "values": [{"measurement": "suitability to suppress microglial growth and activity", "setting": "microglia [3]", "value": "found unacceptable"}]}, {"compound": "NC1=N[C@H](O)[C@H]2[C@H]3O[C@]4(O)O[C@@H]([C@@H](O)[C@@]2(N1)[C@@H]4O)[C@]3(O)CO", "note": "[TTX, tetrodotoxin]", "values": [{"measurement": "activity (LFP)", "setting": "[1]", "value": "blocked"}]}, {"compound": "lipopolysaccharide [LPS]", "values": [{"measurement": "microglia activation", "setting": "microglia [4]", "value": "efficient to activate microglia"}]}, {"compound": "N[C@H](CCCP(=O)(O)O)C(=O)O", "note": "[AP-5, (2R)-amino-5-phosphonopentanoate]", "values": [{"measurement": "spontaneous and inducible activity (LFP)", "setting": "[1]", "value": "partially blocked"}]}]}
